In this assay the test system is L1210 leukemia ip in BDF1 mice, survival T/C. The assay can be described thus: NCI In Vivo Anticancer Drug Screen. Data for tumor model L1210 Leukemia (intraperitoneal) in B6D2F1 (BDF1) mice. Conditions: endpoint: mean survival time, higher = longer survival. In short, it runs like this: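 Transplantable tumor model; survival measured in treated vs vehicle control mice. Value = treated/control.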

The mark [1] stands for this setting: dose: 100.0 mg/kg/injection, schedule: Q01DX001 (ip), vehicle: saline.
Where [2] appears, read: dose: 100.0 mg/kg/injection, schedule: Q01DX009 (ip), vehicle: saline.
Setting [3] is: dose: 200.0 mg/kg/injection, schedule: Q01DX009 (ip), vehicle: saline.
[4] abbreviates: dose: 400.0 mg/kg/injection, schedule: Q01DX009 (ip), vehicle: saline.
Where [5] appears, read: dose: 100.0 mg/kg/injection, schedule: Q04DX003 (ip), vehicle: Klucel (hydroxypropylcellulose) (HPC).
Setting [6] is: dose: 25.0 mg/kg/injection, schedule: Q01DX009 (ip), vehicle: Klucel (hydroxypropylcellulose) (HPC).
Where [7] appears, read: dose: 100.0 mg/kg/injection, schedule: Q04DX003 (ip), vehicle: saline.
[8] abbreviates: dose: 200.0 mg/kg/injection, schedule: Q04DX003 (ip), vehicle: saline.

Molecules are shown by their SMILES. “And” between values parts separate entries of the source, which are not always exact repeats. Identical values can stand only once. Toxic doses and inconclusive results are not listed.

For the compound `COc1ccc(CN2CCCN(Cc3ccc(OC)cc3OC)C2c2ccc(N(CCCl)CCCl)cc2Cl)c(OC)c1`, the T/C was 101 % of control (dose: 50.0 mg/kg/injection, schedule: Q01DX001 (ip), vehicle: carboxymethylcellulose (CMC)); 95 % of control (dose: 100.0 mg/kg/injection, schedule: Q01DX001 (ip), vehicle: carboxymethylcellulose (CMC)); 98 % of control (dose: 200.0 mg/kg/injection, schedule: Q01DX001 (ip), vehicle: carboxymethylcellulose (CMC)); 101 % of control (dose: 400.0 mg/kg/injection, schedule: Q01DX001 (ip), vehicle: carboxymethylcellulose (CMC)).

As for `COC(=O)c1ccc(N(C)CCC(=O)CBr)cc1`, the T/C under setting [1] was 95 % of control.

For `Cc1ccccc1NC(=O)Nc1ccccc1C`, the T/C was 97 % of control (dose: 100.0 mg/kg/injection, schedule: Q01DX009 (ip), vehicle: Klucel (hydroxypropylcellulose) (HPC)); 106 % of control (dose: 200.0 mg/kg/injection, schedule: Q01DX009 (ip), vehicle: Klucel (hydroxypropylcellulose) (HPC)); 93 % of control (dose: 400.0 mg/kg/injection, schedule: Q01DX009 (ip), vehicle: Klucel (hydroxypropylcellulose) (HPC)).

Turning to `Cc1cc(C(=O)O)c(CN2C(=O)c3ccccc3C2=O)c(=O)n1C`, the T/C is 105 % of control (dose: 100.0 mg/kg/injection, schedule: Q01DX001 (ip), vehicle: saline with Tween-80); 102 % of control (dose: 100.0 mg/kg/injection, schedule: Q04DX003 (ip), vehicle: water); 100 % of control (dose: 200.0 mg/kg/injection, schedule: Q01DX001 (ip), vehicle: saline with Tween-80); 100 % of control (dose: 200.0 mg/kg/injection, schedule: Q04DX003 (ip), vehicle: water); 100 % of control (dose: 400.0 mg/kg/injection, schedule: Q01DX001 (ip), vehicle: saline with Tween-80); 104 % of control (dose: 400.0 mg/kg/injection, schedule: Q04DX003 (ip), vehicle: water).

Turning to `COc1ccc2c(c1)CN(S(=O)(=O)c1ccc(C)cc1)c1ccccc1C2=O`, the T/C runs as follows: under setting [2], 89 % of control; under setting [3], 96 % of control; under setting [4], 89 % of control.

As for `C[As](=O)(O)c1ccc(N)cc1`, the T/C runs as follows: (dose: 25.0 mg/kg/injection, schedule: Q04DX003 (ip), vehicle: Klucel (hydroxypropylcellulose) (HPC)) 95 % of control; (dose: 50.0 mg/kg/injection, schedule: Q04DX003 (ip), vehicle: Klucel (hydroxypropylcellulose) (HPC)) 93 % of control; under setting [5], 90 % of control and 92 % of control.

Take `CCOC(=O)C1C2OC(=O)C(C(=O)C2CN(CCCl)CCCl)C1C1CC=C(CC2=CCC(C3C4C(=O)OC(C(CN(CCCl)CCCl)C4=O)C3C(=O)OCC)CC2)CC1` (stereo not drawn): the T/C is, setting by setting: (dose: 6.25 mg/kg/injection, schedule: Q01DX009 (ip), vehicle: Klucel (hydroxypropylcellulose) (HPC)) 108 % of control; (dose: 12.5 mg/kg/injection, schedule: Q01DX009 (ip), vehicle: Klucel (hydroxypropylcellulose) (HPC)) 116 % of control; under setting [6], 158 % of control; (dose: 33.25 mg/kg/injection, schedule: Q04DX003 (ip), vehicle: Klucel (hydroxypropylcellulose) (HPC)) 109 % of control; (dose: 50.0 mg/kg/injection, schedule: Q01DX009 (ip), vehicle: Klucel (hydroxypropylcellulose) (HPC)) 114 % of control and 120 % of control; (dose: 66.5 mg/kg/injection, schedule: Q04DX003 (ip), vehicle: Klucel (hydroxypropylcellulose) (HPC)) 109 % of control. In addition, the T/C under setting [5] was 114 % of control; the T/C (dose: 133.0 mg/kg/injection, schedule: Q04DX003 (ip), vehicle: Klucel (hydroxypropylcellulose) (HPC)) was 109 % of control; the T/C (dose: 200.0 mg/kg/injection, schedule: Q04DX003 (ip), vehicle: Klucel (hydroxypropylcellulose) (HPC)) was 120 % of control; the T/C (dose: 266.0 mg/kg/injection, schedule: Q04DX003 (ip), vehicle: Klucel (hydroxypropylcellulose) (HPC)) was 117 % of control.

In the case of `CC(C)Cc1ncc(CCCN=C(N)N)[nH]c1=O`, the T/C is 106 % of control (dose: 12.5 mg/kg/injection, schedule: Q04DX002 (ip), vehicle: saline with Tween-80); 98 % of control (dose: 25.0 mg/kg/injection, schedule: Q04DX002 (ip), vehicle: saline with Tween-80); 95 % of control (dose: 50.0 mg/kg/injection, schedule: Q04DX002 (ip), vehicle: saline with Tween-80); 103 % of control (dose: 100.0 mg/kg/injection, schedule: Q04DX002 (ip), vehicle: saline with Tween-80).

Consider `CCOC(CN(C(C)=O)C1(c2ccc(OC)c(OC)c2)C(=O)c2ccccc2C1=O)OCC`, for which the T/C is 110 % of control (dose: 100.0 mg/kg/injection, schedule: Q01DX001 (ip), vehicle: Klucel (hydroxypropylcellulose) (HPC)); 105 % of control (dose: 200.0 mg/kg/injection, schedule: Q01DX001 (ip), vehicle: Klucel (hydroxypropylcellulose) (HPC)); 98 % of control (dose: 400.0 mg/kg/injection, schedule: Q01DX001 (ip), vehicle: Klucel (hydroxypropylcellulose) (HPC)).

For `CCOC(=O)C1CCCNC1` (stereo not drawn), the T/C was 96 % of control under setting [2]; 98 % of control under setting [7]; 91 % of control under setting [3]; 101 % of control under setting [8]; 100 % of control under setting [4]; 94 % of control (dose: 400.0 mg/kg/injection, schedule: Q04DX003 (ip), vehicle: saline).

Consider `Nc1nc(Br)cs1`, for which the T/C runs as follows: under setting [7], 102 % of control; under setting [8], 102 % of control.

With `CC(c1ccccc1)n1cnc2c(Cl)ncnc21` (stereo not drawn), the T/C was 98 % of control under setting [1]; 101 % of control (dose: 200.0 mg/kg/injection, schedule: Q01DX001 (ip), vehicle: saline); 110 % of control (dose: 400.0 mg/kg/injection, schedule: Q01DX001 (ip), vehicle: saline).

`N=C(N)SCc1ccc(Cl)cc1`: the T/C is 98 % of control (dose: 25.0 mg/kg/injection, schedule: Q04DX002 (ip), vehicle: saline); 94 % of control (dose: 50.0 mg/kg/injection, schedule: Q04DX002 (ip), vehicle: saline); 101 % of control (dose: 100.0 mg/kg/injection, schedule: Q04DX002 (ip), vehicle: saline).

For the compound `CC[S][Pb]([c]1ccccc1)([c]1ccccc1)[c]1ccccc1`, where the note is “dose: 12.5 mg/kg/injection, schedule: Q04DX002 (ip), vehicle: Klucel (hydroxypropylcellulose) (HPC)”, the T/C was 103 % of control.

On to `CC1(C)CC(C(=O)O)C(=O)O1` (stereo not drawn), for which the T/C (dose: 75.0 mg/kg/injection, schedule: Q01DX001 (ip), vehicle: saline) is 97 % of control; the T/C (dose: 150.0 mg/kg/injection, schedule: Q01DX001 (ip), vehicle: saline) was 103 % of control; the T/C (dose: 300.0 mg/kg/injection, schedule: Q01DX001 (ip), vehicle: saline) is 98 % of control.

Turning to `Fc1c(F)c(F)c(Oc2c(F)c(F)c(F)c(F)c2Oc2c(F)c(F)c(F)c(F)c2F)c(F)c1F`, the T/C (dose: 10.0 mg/kg/injection, schedule: Q01DX009 (ip), vehicle: Klucel (hydroxypropylcellulose) (HPC)) was 96 % of control; the T/C under setting [6] is 96 % of control; the T/C (dose: 37.5 mg/kg/injection, schedule: Q01DX009 (ip), vehicle: Klucel (hydroxypropylcellulose) (HPC)) was 98 % of control; the T/C (dose: 150.0 mg/kg/injection, schedule: Q01DX009 (ip), vehicle: Klucel (hydroxypropylcellulose) (HPC)) was 97 % of control; the T/C (dose: 300.0 mg/kg/injection, schedule: Q01DX009 (ip), vehicle: Klucel (hydroxypropylcellulose) (HPC)) is 99 % of control.

Consider `COc1ccc([N+](=O)[O-])c(O)c1C`, for which the T/C is 90 % of control (dose: 100.0 mg/kg/injection, schedule: Q01DX009 (ip), vehicle: saline with Tween-80); 96 % of control (dose: 200.0 mg/kg/injection, schedule: Q01DX009 (ip), vehicle: saline with Tween-80); 106 % of control (dose: 400.0 mg/kg/injection, schedule: Q01DX009 (ip), vehicle: saline with Tween-80).

For the compound `CC(=O)[O][Pb]([CH3])([CH3])[CH3]`, the T/C (dose: 5.0 mg/kg/injection, schedule: Q01DX001 (ip), vehicle: carboxymethylcellulose (CMC)) was 110 % of control and the T/C (dose: 10.0 mg/kg/injection, schedule: Q01DX001 (ip), vehicle: carboxymethylcellulose (CMC)) was 103 % of control.

`C/C(CC(C)C)=N\NC(=O)Nc1ccccc1Cl`: the T/C is 102 % of control (dose: 100.0 mg/kg/injection, schedule: Q01DX009 (ip), vehicle: other); 89 % of control (dose: 200.0 mg/kg/injection, schedule: Q01DX009 (ip), vehicle: other); 102 % of control (dose: 400.0 mg/kg/injection, schedule: Q01DX009 (ip), vehicle: other).

The record behind these values is PubChem BioAssay AID248 (DTP/NCI, 2004).
